Experimental data published in ChEMBL document CHEMBL3137667, “[Drug-induced liver injury; fourteenth updated edition of the bibliographic database of liver injuries and related drugs]” (Gastroenterol Clin Biol, 2004).

Assays:
[1] = human
[2] = human, serum
[3] = human; remark: listed apart in the source
[4] = human, serum, 4383 h
[5] = human; remark: listed apart in the source
[6] = Presence of at least one case with successful reintroduction. [column 'REINT' in source]; conditions: human
[7] = human, serum; remark: listed apart in the source
[8] = human; remark: listed apart in the source
[9] = Times to onset, minimal and maximal, observed in the indexed observations. [column 'DELAI' in source]; conditions: human
[10] = human; remark: listed apart in the source
[11] = human; remark: listed apart in the source
[12] = human; remark: listed apart in the source
[13] = Comments (NB not yet translated). [column 'COMMENTAIRES' in source]; conditions: human
[14] = Highest frequency of acute liver toxicity observed during clinical trials, expressed as a percentage. [column '% AIGUE' in source]; conditions: human
[15] = Proposed mechanism(s) of liver damage. [column 'MEC' in source]; conditions: human
[16] = human; remark: listed apart in the source
[17] = Highest frequency of moderate liver toxicity observed during clinical trials, expressed as a percentage. [column '% BIOL' in source]; conditions: human
[18] = human; remark: listed apart in the source
[19] = human; remark: listed apart in the source
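For Hepatotoxicity (association with vascular disease) in this document: count of indexed literature references reporting vascular liver injury in humans, e.g. peliosis hepatitis, hepatic veno-occlusive disease or Budd-Chiari syndrome.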
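For Hepatotoxicity (benign tumour) in this document: value is a count of indexed literature references citing a benign tumour confirmed by histopathology.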
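For Hepatotoxicity (choleostasis) in this document: human cholestatic liver injury, shown by histopathology or by peak ALT or AST elevation over alkaline phosphatase ratio below 2, value counts indexed literature reports.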
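For Hepatotoxicity (chronic liver disease) in this document: chronic liver injury confirmed by histopathology or persistently raised serum aminotransferase activity beyond 6 months, value given as the count of indexed literature references.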
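For Hepatotoxicity (cirrhosis) in this document: value is a count of indexed literature references reporting cirrhosis confirmed by histopathology.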
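For Hepatotoxicity (cytolytic) in this document: human cytolytic liver injury, shown by histopathology or by a ratio above 5 of peak ALT or AST elevation to alkaline phosphatase elevation, value counts indexed references.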
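For Hepatotoxicity (granulomatous hepatitis) in this document: value is a count of indexed literature references reporting granulomatous liver disease confirmed by histopathology.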
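For Hepatotoxicity (malignant tumour) in this document: malignant tumour confirmed by histopathology, value gives the count of indexed literature references reporting it.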
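For Hepatotoxicity (severe hepatitis) in this document: human clinical data: severe hepatitis, meaning potentially life-threatening liver failure or clinically observed cases, the value counts how many indexed literature references report it.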
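For Hepatotoxicity (steatosis) in this document: steatosis confirmed by histopathology, value is the count of indexed references.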

Compound | Hepatotoxicity (association with vascular disease) [1] | Hepatotoxicity (moderate) [2] | Hepatotoxicity (choleostasis) [3] | Hepatotoxicity (chronic liver disease) [4] | Hepatotoxicity (cytolytic) [5] | Hepatotoxicity (successful reintroduction) [6] | Hepatotoxicity (acute) [7] | Hepatotoxicity (animal toxicity known) [8] | Hepatotoxicity (time to onset) [9] | Hepatotoxicity (granulomatous hepatitis) [10] | Hepatotoxicity (benign tumour) [11] | Hepatotoxicity (steatosis) [12] | Hepatotoxicity (comment) [13] | Hepatotoxicity (acute) [14] | Hepatotoxicity (mechanism) [15] | Hepatotoxicity (cirrhosis) [16] | Hepatotoxicity (moderate) [17] | Hepatotoxicity (severe hepatitis) [18] | Hepatotoxicity (malignant tumour) [19]
COC(F)(F)C(Cl)Cl [METHOXYFLURANE] | 0 | 8 | 0 | 0 | 27 | yes | 32 | yes | 1 day - 20 days | 0 | 0 | 3 | RC/HALOTHANE | 0% | Allergic, Reactive metabolite | 0 | 0% | 19 | 0
CN(C)c1ccc(O)c2c1C[C@H]1C[C@H]3[C@H](N(C)C)C(O)=C(C(N)=O)C(=O)[C@@]3(O)C(O)=C1C2=O [MINOCYCLINE] | 0 | 17 | 2 | 11 | 36 | yes | 48 | yes | 4 days - 12 years | 1 | 0 | 2 | AC_ANTI-N/-ADN/-pNCA REACTIVATION_VH-6 | 0% | Allergic, Dose-dependant, Toxic Metabolite | 0 | 41.7% | 8 | 0
CCC(=O)O[C@](Cc1ccccc1)(c1ccccc1)[C@H](C)CN(C)C [PROPOXYPHENE] | 0 | 6 | 20 | 1 | 7 | yes | 21 | yes | 1 day - 1.5 years | 0 | 0 | 0 | CHOLANGITE | 0% | Allergic, Dose-dependant | 0 | 14.3% | 0 | 0
NC(=O)c1cnccn1 [PYRAZINAMIDE] | 0 | 21 | 8 | 1 | 28 | yes | 51 | yes | 2 hours - 1.2 years | 1 | 0 | 0 | I/OFLOXACINE AC_ANTI-N | 31.8% | Allergic, Dose-dependant | 0 | 36.4% | 19 | 0
CNC(=O)OCc1cccc(COC(=O)NC)n1 [PYRICARBATE] | 0 | 4 | 4 | 0 | 8 | yes | 9 | A | 2 weeks - 6 months | 0 | 0 | 0 | AC_ANTI-MFR/-ML | 0.7% | Allergic | 0 | 10% | 3 | 0
CO[C@H]1/C=C/O[C@@]2(C)Oc3c(C)c(O)c4c(O)c(c(/C=N/N5CCN(C)CC5)c(O)c4c3C2=O)NC(=O)/C(C)=C\C=C\[C@H](C)[C@H](O)[C@@H](C)[C@@H](O)[C@@H](C)[C@H](OC(C)=O)[C@@H]1C [RIFAMPIN] | 0 | 22 | 19 | 0 | 14 | yes | 38 | yes | 2 days - 14 months | 0 | 0 | 0 | AC_ANTI-N I/ISONIAZIDE/TROLEANDOMYCINE | 7.3% | Allergic, Dose-dependant | 0 | 23% | 6 | 0
CO[C@H]1C[C@H](O[C@H]2[C@H](C)[C@@H](O[C@@H]3O[C@H](C)C[C@H](N(C)C)[C@H]3OC(C)=O)[C@@H](C)C[C@@]3(CO3)C(=O)[C@H](C)[C@@H](OC(C)=O)[C@@H](C)[C@@H](C)OC(=O)[C@@H]2C)O[C@@H](C)[C@@H]1OC(C)=O [TROLEANDOMYCIN] | 0 | 15 | 26 | 0 | 2 | yes | 27 | yes | 3 days - 2 weeks | 0 | 0 | 0 | CHOLANGITE I/PILULE/RIFAMPICINE RC/ERYTHROMYCINE | 4% | Allergic, Dose-dependant | 0 | 83.3% | 0 | 0
CC[C@]1(O)C[C@H]2CN(CCc3c([nH]c4ccccc34)[C@@](C(=O)OC)(c3cc4c(cc3OC)N(C=O)[C@H]3[C@@](O)(C(=O)OC)[C@H](OC(C)=O)[C@]5(CC)C=CCN6CC[C@]43[C@@H]65)C2)C1 [VINCRISTINE] | 7 | 3 | 0 | 0 | 4 | yes | 5 | yes | 3 days - 20 days | 0 | 0 | 0 | I/RADIOTHERAPIE REACTIVATION_HVB | 0% | Dose-dependant | 0 | 7.3% | 4 | 1
ALDESLEUKIN | 0 | 58 | 6 | 0 | 6 | yes | 14 | yes | 1 day - 2 years | 0 | 0 | 1 | CHOLECYSTITE PERICHOLANGITE | 35.7% | Allergic, Dose-dependant | 1 | 100% | 1 | 0
CISPLATIN | 2 | 23 | 1 | 0 | 2 | yes | 3 | yes | 1 day - 2 weeks | 0 | 0 | 1 | CHOLANGITE/IAH | 7% | Dose-dependant | 0 | 93% | 1 | 0
